{"source": "ChEMBL document CHEMBL1143232", "about": "“Antiviral activities against herpes simplex virus type 1 by HPH derivatives and their structure-activity relationships” (Bioorg Med Chem Lett, 2008)", "key": {"[1]": {"test": "Cytotoxicity against african green monkey Vero cells after 69 hrs by Alamar blue assay", "assay_type": "cell-based", "conditions": "chlorocebus sabaeus"}, "[2]": {"test": "Ratio of CC50 for african green monkey Vero cells to EC50 for HSV1 KOS", "assay_type": "functional"}, "Human alphaherpesvirus 1": {"test_system": "Human alphaherpesvirus 1", "test": "Antiviral activity against HSV1 KOS in african green monkey Vero cells by plaque reduction assay", "assay_type": "functional, organism-based", "conditions": "Human alphaherpesvirus 1, KOS"}, "[3]": {"test": "Partition coefficient, log P of the compound", "assay_type": "physicochemical", "conditions": "octanol/water"}}}
{"smiles": "CC(C)(C)SCCNC(=O)c1cccc(C(=O)NCCSC(C)(C)C)n1", "values": [{"measurement": "CC50 at 69 h", "setting": "[1]", "value": 500, "unit": "µM"}, {"measurement": "Ratio CC50/EC50", "setting": "[2]", "value": 6.3}, {"measurement": "EC50", "setting": "Human alphaherpesvirus 1", "value": 79, "unit": "µM"}, {"measurement": "logP", "setting": "[3]", "value": 2.7}]}
{"smiles": "O=C(CCNC(=O)c1cccc(C(=O)NCCC(=O)NO)n1)NO", "values": [{"measurement": "CC50 at 69 h", "setting": "[1]", "value": "> 100", "unit": "µM"}, {"measurement": "EC50", "setting": "Human alphaherpesvirus 1", "value": "> 100", "unit": "µM"}]}
{"smiles": "CSCCNC(=O)c1cccc(C(=O)NCCSC)n1", "values": [{"measurement": "CC50 at 69 h", "setting": "[1]", "value": "> 100", "unit": "µM"}, {"measurement": "EC50", "setting": "Human alphaherpesvirus 1", "value": "> 100", "unit": "µM"}]}
{"smiles": "O=C(O)CCNC(=O)c1cccc(C(=O)NCCC(=O)O)n1", "values": [{"measurement": "CC50 at 69 h", "setting": "[1]", "value": "> 100", "unit": "µM"}, {"measurement": "EC50", "setting": "Human alphaherpesvirus 1", "value": "> 100", "unit": "µM"}]}
{"smiles": "O=C(O)CCNC(=O)c1cc(-c2cccc3ccccc23)cc(C(=O)NCCC(=O)O)n1", "values": [{"measurement": "CC50 at 69 h", "setting": "[1]", "value": "> 100", "unit": "µM"}, {"measurement": "EC50", "setting": "Human alphaherpesvirus 1", "value": "> 100", "unit": "µM"}]}
{"smiles": "COC(=O)C(Cc1c[nH]cn1)NCc1cc(N(C)C)cc(C(=O)NC(Cc2c[nH]cn2)C(=O)OC)n1", "note": "(configuration not stated)", "values": [{"measurement": "CC50 at 69 h", "setting": "[1]", "value": "> 100", "unit": "µM"}, {"measurement": "EC50", "setting": "Human alphaherpesvirus 1", "value": "> 100", "unit": "µM"}]}
{"smiles": "O=C(CCNC(=O)c1cc(-c2cccc3ccccc23)cc(C(=O)NCCC(=O)NO)n1)NO", "values": [{"measurement": "CC50 at 69 h", "setting": "[1]", "value": "> 100", "unit": "µM"}, {"measurement": "EC50", "setting": "Human alphaherpesvirus 1", "value": "> 100", "unit": "µM"}]}
{"smiles": "Nc1nc2c(ncn2COCCO)c(=O)[nH]1", "note": "[ACYCLOVIR]", "values": [{"measurement": "CC50 at 69 h", "setting": "[1]", "value": "> 100", "unit": "µM"}, {"measurement": "EC50", "setting": "Human alphaherpesvirus 1", "value": 6, "unit": "µM"}]}
{"smiles": "CC(C)(C)SCCNC(=S)c1cccc(C(=S)NCCSC(C)(C)C)n1", "values": [{"measurement": "CC50 at 69 h", "setting": "[1]", "value": 37, "unit": "µM"}, {"measurement": "Ratio CC50/EC50", "setting": "[2]", "value": 2.5}, {"measurement": "EC50", "setting": "Human alphaherpesvirus 1", "value": 15, "unit": "µM"}, {"measurement": "logP", "setting": "[3]", "value": 4.4}]}
